The values that follow come from patent US20240002870A1, “RAPID TRANSFORMATION OF MONOCOT LEAF EXPLANTS” (PIONEER HI-BRED INTERNATIONAL, INC., priority 2020, published 2024).

Assay [1] deals with Pioneer inbred PHH5E leaf segments. Put plainly: Auxin (2,4-D) pre-treatment of seedlings prior to Agrobacterium infection (Table 29). It counts as cell-based, maize. The following applies: for T-DNA Delivery: PHP71539 plus PHP97334.
In assay [2] the test system is inbred PHH5E seedling-derived leaf segments. As to the kind of experiment: Seedling pre-treatment with ancymidol before leaf transformation. It counts as cell-based, maize. The settings on record: PHP97334.
Assay [3] concerns Japonica rice (Oryza sativa var Kitaake), teff (Eragrostis tef), pearl millet (Pennisetum glaucum) seedlings. As to the kind of experiment: Ancymidol pretreatment during seed germination and seedling growth of other cereals. It counts as cell-based. The following applies: 1 mg/l in 900 medium; all three cereal crops. On the procedure: Both […] ancymidol pretreatments during seed germination and seedling growth were tested (using medium 900 plus 1 mg/l or 2 mg/l ancymidol) on three cereals Japonica rice (Oryza sativa var Kitaake), teff (Eragrostis tef), and pearl millet (Pennisetum glaucum). […] When seed from all three species were germinated and grown on 900 medium plus 2 mg/l ancymodiol, the seedlings only grew to a height of 1-2 cm after 14 days and although the leaf-whorl region was thicker (due to wider leaves), processing these small seedlings to produce leaf segments followed by transformation was more difficult.
In contrast, for all three cereal crops, seed germination and seedling growth on 900 plus 1 mg/l ancymidol produced an intermediate growth rate, with thicker stems and wider leaves than the control (with no ancymidol). […] Thus, compared to maize and sorghum in which 2 mg/l ancymidol pretreatment during seedling growth is optimal for leaf transformation, a lower concentration of 1 mg/l ancymidol produced optimal results in rice, tef, and pearl millet.

Assay [4] deals with maize plants with edited or wild-type ALS2 alleles. As to the kind of experiment: Chlorsulfuron resistance test of plants with edited and wild-type ALS2 alleles (spray, germination on medium). The settings on record: for plants fourteen days after germination on media: 100 ppm; for phenotype three weeks after treatment: spray 50, 100 (1x), 200, 400 mg/liter. It counts as in vivo.

Where “and” joins values, the source holds several entries; their conditions need not be identical. Equal values may be shown once.

Turning to `O=C(O)COc1ccc(Cl)cc1Cl` [2,4-D, 2,4-dichlorophenoxyacetic acid], the “No. SC Clean (single-copy T-DNA integration with no extraneous Agrobacterium sequences)” value was found to be 18 in assay [1] (3 mg/l 2,4-D for 24 hours), 40 in assay [1] (10 mg/l 2,4-D for 24 hours) and 19 in assay [1] (30 mg/l 2,4-D for 24 hours). The “T-DNA Delivery” value in assay [1] (10 mg/l 2,4-D for 24 hours before infection) and in assay [1] (30 mg/l 2,4-D for 24 hours before infection) was 4 (90-100%) throughout. Besides, the “effect on leaf transformation (Txn %, single-copy T-DNA integrations) compared to the control treatment” value in assay [1] (10 mg/l, 24 hours) was “improved leaf transformation”.
In the case of `COc1ccc(C(O)(c2cncnc2)C2CC2)cc1` (centres unmarked) [Ancymidol, ancymidol], the Txn % in assay [2] (2 mg/l) was 236% and 358% and 303%; in assay [2] (2 mg/l, listed as ancymidol), 302%; in assay [2] (2 mg/l, total over three experiments), 302%; in assay [2] (4 mg/l) it was 234% and 252% and 253%; in assay [2] (4 mg/l, listed as ancymidol), 246%; in assay [2] (4 mg/l, total over three experiments), 246%. Besides, the “transgenic T0 plantlets compared to the other two treatments” value in assay [3] was “produced the highest number of transgenic TO plantlets”.
In the case of `COc1nc(C)nc(NC(=O)NS(=O)(=O)c2ccccc2Cl)n1` [chlorsulfuron], the “plants fourteen days after germination on media” value is “normal height and a well-developed root system” in assay [4] (plants with edited alleles); “short and do not develop roots” in assay [4] (plants with wild-type alleles). The “phenotype three weeks after treatment” value in assay [4] (T1 plants with only wild-type alleles) is on record as “strong signs of senescence”; in assay [4] (four-week old T1 plants with an edited ALS2 allele) it was “normal phenotype”.
